Common to all, as to type: cell-based, human
The test system of series [1] is THP-1 cells. The series is described as follows: Annexin V-FITC/PI apoptosis assay by flow cytometry, THP-1. On the procedure:
(§1) Staining of cells by Annexin V-FITC conjugate reflects the externalization of phosphatidylserine on the outer surface of the cell membrane as one of the early indicators of apoptosis.
(§2) Early and late stages of apoptosis were detected using Annexin V-FITC Kit—Apoptosis Detection Kit faccording to the manufacturer´s instructions. […] At each time-point of incubation (12, 18, and 24 h) the cells were washed with ice-cold PBS prior to being resuspended at a concentration of 5 × 10^6 cells/mL in a total volume of 100 μL of 1× binding buffer. Annexin V-FITC solution (final concentration 0.25 μg/mL) and PI (final concentration 12.5 μg/mL) were added to each sample; the cell suspension was kept on ice and incubated for 15 min in the dark. After that, the analysis was carried out by flow cytometry. The data were evaluated using Kaluza Flow Cytometry Analysis 1.2. Per sample, a total number of 2 × 10^4 cells were analysed.

Assay in series [2]: as above
The note with it: human, THP-1 cells, representative dot plot, read-out: quadrant I: viable cells. On the procedure:
as §1, §2

For another series, the system named is cyclin E1. The series is described as follows: Western blot of cyclin E1 in MCF-7 cells. The conditions noted are these: MCF-7, 24 h. On the procedure: Additionally, the cell cycle analysis allows determining the presence of a subdiploid cell population as a characteristic marker of cells with fractional DNA content. A significant increase (p < 0.001) of the sub-G1 peak was found only after the treatment with 5 µM of compound 2 in THP-1 cells, where an approximately eight-fold increase was observed compared to the drug-free control (Figure 4).
(§3) For Western blotting, cells were washed with PBS and lysed in lysis buffer (100 mM Tris-HCl, pH = 6.8; 20% glycerol; 1% SDS) containing protease and phosphatase inhibitor cocktails. Protein concentration was measured using Roti®-Quant universal (Carl Roth, Karsruhe, Germany) according to the manufacturer’s instructions. Cell lysates were supplemented with bromophenol blue (final concentration 0.01% (w/v)) and β-mercaptoethanol (final concentration 1% (v/v)) prior to being heated for 5 min at 95 °C. Equal amounts of protein (10 μg) were loaded into a 12% polyacrylamide gel, separated by SDS-polyacrylamide gel electrophoresis and subsequently electrotransferred onto nitrocellulose membranes. Reversible Ponceau S. staining was performed to assess equal sample loading. […] The intensity of bands was semi-quantitatively analysed using the ImageJ software (National Institute of Mental Health, Bethesda, MD, USA).

The test system of another series is caspase 9. The experiment in a line: Western blot of caspase 9 in THP-1 cells. The conditions noted are these: THP-1, 24 h, most pronounced at 10 μM. On the procedure:
Most of the apoptotic signalling pathways are controlled by caspases that belong to a group of cysteine proteases. To assess whether compound 2 affects these signalling cascades and which pathway is activated (intrinsic or extrinsic), the activities of caspase 3, caspase 9, and caspase 8 were evaluated using Western blot analysis.
as §3

Series [3] deals with THP-1 cells. The series is described as follows: Flow cytometric cell cycle analysis (PI), THP-1. On the procedure: (§4) In order to determine at which stage of the cell cycle these compounds induce cell growth inhibition, flow cytometric analyses of cell cycle profiles in THP-1 and MCF-7 cell lines were performed. […] Therefore, THP-1 and MCF-7 cells were treated for 24 h with the compounds at concentrations of 2.5, 5, and 10 μM, respectively. In general, we detected a qualitatively similar effect on the distribution of cells in cell cycle phases following the treatment with compounds 2 and 6 in both leukaemia and breast carcinoma cells. […] This was in concert with a simultaneous decrease in the number of cells observed in the S phase compared to the drug-free control, while the percentage of cells in the G2/M phase remained unchanged.
(§5) THP-1 and sub-confluent MCF-7 cells were treated and subsequently incubated with indicated concentrations of compounds 2 and 6 for 24 h. After the incubation, cells were washed twice in PBS (pH 7.4), fixed in 70% ethanol and stored at −20 °C overnight. Fixed cells were collected by centrifugation, and supernatant was discarded. The cell pellet was washed twice with PBS and incubated with RNaseA (0.02 mg/mL) and 0.05% (v/v) Triton X-100 in PBS for 30 min at 37 °C. After the nuclei staining with propidium iodide (PI) (0.04 mg/mL), the cell cycle distribution was analysed using a flow cytometer Cell Lab Quanta SC (Beckman Coulter, Brea, CA, USA). The quantification of cell cycle distribution was carried out using software MultiCycle AV (Phoenix Flow System, San Diego, CA, USA). A total number of 2 × 10^4 cells was analysed per sample.

A further series deals with MCF-7 cells. The series is described as follows: Flow cytometric cell cycle analysis (PI), MCF-7. The conditions noted are these: MCF-7, 24 h. On the procedure: as §4, §5

With `O=C(Nc1cccc([N+](=O)[O-])c1)c1cc2ccccc2cc1O` [Compound 2, 3-hydroxy-N-(3-nitrophenyl)naphthalene-2-carboxamide], the “double-stained (late apoptotic/secondary necrotic) cells” value in the series on THP-1 cells [1] (THP-1, 10 µM, 12 h, mean) is recorded as 22.48%; with THP-1 cells [1] (THP-1, 10 µM, 24 h, mean), 41.88%. For the same compound, in the series on THP-1 cells [1] (THP-1, 10 µM, 12 h, mean, control 2.41%), the “proportion of early apoptotic cells” value was found to be 9.37%. The “pro-apoptotic effect” value in the series on THP-1 cells [1] (THP-1, 2.5, 5, 10 µM, 12, 18, 24 h) is listed as “induced a dose-dependent increase of the percentage of early apoptotic as well as late apoptotic/secondary necrotic”. The viability at 12 h, 2.5 µM in series [2] (THP-1, 2.5 μM, 12 h) was 92.1%. The viability at 18 h, 2.5 µM in series [2] (THP-1, 2.5 μM, 18 h) is 90.2%. Besides, the viability at 24 h, 2.5 µM in series [2] (THP-1, 2.5 μM, 24 h) turned out to be 87.8%. In addition, in series [2] (THP-1, 5 μM, 12 h), the viability at 12 h, 5 µM came to 85.8%. In series [2] (THP-1, 5 μM, 18 h), the viability at 18 h, 5 µM stood at 76.7%. Also, the viability at 24 h, 5 µM in series [2] (THP-1, 5 μM, 24 h) turned out to be 75.7%. For the same compound, the viability at 12 h, 10 µM in series [2] (THP-1, 10 μM, 12 h) came to 64.9%. In addition, the viability at 18 h, 10 µM in series [2] (THP-1, 10 μM, 18 h) worked out at 57.2%. In addition, the viability at 24 h, 10 µM in series [2] (THP-1, 10 μM, 24 h) was 44.6%. In addition, the “expression of cyclin E1” value in the series with cyclin E1 was “dose-dependent decrease in expression of cyclin E1”. Further, in the series on caspase 9, the “cleaved caspase 9 levels” value was “significant increase of cleaved caspase 9 levels”. For the same compound, in the series with THP-1 cells [3] (THP-1, 5 µM, 24 h, p < 0.001), the “increase of sub-G1 peak compared to drug-free control” value was “approximately eight-fold”. The “distribution of cells in cell cycle phases” value with THP-1 cells [3] (THP-1, 24 h) is on record as “induced accumulation of cells in G1 phase”; in the series with MCF-7 cells, “induced accumulation of cells in G1 phase”. The “sub-G1 / sub-diploid population” value in the series on MCF-7 cells is reported as “did not induce any elevation of the sub-G1 peak”.

Source of the values: paper PMC5000617, “Antiproliferative and Pro-Apoptotic Effect of Novel Nitro-Substituted Hydroxynaphthanilides on Human Cancer Cell Lines” (International Journal of Molecular Sciences, 2016).
